Source: patent US9815850B2, “Compounds, compositions and methods” (Denali Therapeutics Inc., priority 2016, dated 2017)

biological target: GST-hRIPK1 (8-327) (Homo sapiens (Human), UniProt Q13546); experiment: Fluorescent Polarization Binding (FP Binding) assay; conditions: 10 nM GST-hRIPK1 (8-327), 5 nM fluorescent labeled ligand; read-out: FP IC50
Protocol: Fluorescent Polarization Binding (FP Binding) assay (Berger S. B. et al. […] Maki J. L. et al. […] Test Compounds were serially diluted in DMSO at 100 fold final concentrations in the assay (1% DMSO final). […] For negative control the enzyme addition was replaced by assay buffer only. After addition of 5 μL of fluorescent labeled ligand at twice the final concentrations in assay buffer, the plate was incubated at RT for 30 min.

Chain of GST-hRIPK1 (8-327) (Q13546 8-327): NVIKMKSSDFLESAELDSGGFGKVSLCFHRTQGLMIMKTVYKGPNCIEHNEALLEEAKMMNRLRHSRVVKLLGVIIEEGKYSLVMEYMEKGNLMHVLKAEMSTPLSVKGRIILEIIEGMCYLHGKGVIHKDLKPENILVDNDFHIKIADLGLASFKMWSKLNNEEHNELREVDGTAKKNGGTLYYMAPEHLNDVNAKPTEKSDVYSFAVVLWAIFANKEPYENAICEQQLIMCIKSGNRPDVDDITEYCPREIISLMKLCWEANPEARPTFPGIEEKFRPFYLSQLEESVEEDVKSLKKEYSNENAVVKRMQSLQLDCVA

Compound | IC50
C[C@H]1Oc2cccnc2N(C)C(=O)[C@H]1NC(=O)c1nnc(Cc2ccccc2)s1 [Example 217, 5-benzyl-N-((2R,3S)-2,5-dimethyl-4-oxo-2,3,4,5-tetrahydropyrido[3,2-b][1,4]oxazepin-3-yl)-1,3,4-thiadiazole-2-carboxamide] | 0.1 to 1000 nM
CN1C(=O)[C@@H](NC(=O)c2nnc(Cc3ccccc3)[nH]2)[C@H]2C[C@H]2c2cc(C#N)cnc21 [Example 218, 5-benzyl-N-((1aS,2S,8bR)-7-cyano-4-methyl-3-oxo-1,1a,2,3,4,8b-hexahydrocyclopropa[d]pyrido[2,3-b]azepin-2-yl)-4H-1,2,4-triazole-3-carboxamide] | 0.1 to 1000 nM
CN1C(=O)[C@@H](NC(=O)c2ncc(Cc3cccc(C#N)c3)s2)CCc2cccnc21 [Example 219, (S)-5-(3-cyanobenzyl)-N-(9-methyl-8-oxo-6,7,8,9-tetrahydro-5H-pyrido[2,3-b]azepin-7-yl)thiazole-2-carboxamide] | 0.1 to 1000 nM
COc1cccc(Cn2cc(F)c(C(=O)N[C@H]3COc4ccccc4N(C)C3=O)n2)n1 [Example 220, (S)-4-fluoro-1-((6-methoxypyridin-2-yl)methyl)-N-(5-methyl-4-oxo-2,3,4,5-tetrahydrobenzo[b][1,4]oxazepin-3-yl)-1H-pyrazole-3-carboxamide] | 0.1 to 1000 nM
C[C@H]1Oc2cccnc2N(C)C(=O)[C@H]1NC(=O)c1nnc(C(F)(F)c2ccccc2)o1 [Example 221, 5-(difluoro(phenyl)methyl)-N-((2R,3S)-2,5-dimethyl-4-oxo-2,3,4,5-tetrahydropyrido[3,2-b][1,4]oxazepin-3-yl)-1,3,4-oxadiazole-2-carboxamide] | 0.1 to 1000 nM
C[C@H]1Oc2cccnc2N(C)C(=O)[C@H]1NC(=O)c1noc(Cc2ccccc2)n1 [Example 222, 5-benzyl-N-((2R,3S)-2,5-dimethyl-4-oxo-2,3,4,5-tetrahydropyrido[3,2-b][1,4]oxazepin-3-yl)-1,2,4-oxadiazole-3-carboxamide] | 0.1 to 1000 nM
CN1C(=O)[C@@H](NC(=O)c2nnc(Cc3ccc(F)cc3)o2)[C@H]2C[C@H]2c2nccnc21 [Example 223, 5-(4-fluorobenzyl)-N-((7S,7aS,8aR)-5-methyl-6-oxo-5,6,7,7a,8,8a-hexahydrocyclopropa[d]pyrazino[2,3-b]azepin-7-yl)-1,3,4-oxadiazole-2-carboxamide] | 0.1 to 1000 nM
CN1C(=O)[C@@H](NC(=O)c2nn(Cc3ncccn3)cc2F)COc2ccccc21 [Example 224, (S)-4-fluoro-N-(5-methyl-4-oxo-2,3,4,5-tetrahydrobenzo[b][1,4]oxazepin-3-yl)-1-(pyrimidin-2-ylmethyl)-1H-pyrazole-3-carboxamide] | 0.1 to 1000 nM
CN1C(=O)[C@@H](NC(=O)c2nnc(Cc3ccccc3)o2)CCc2ccccc21 [Example 225, (S)-5-benzyl-N-(1-methyl-2-oxo-2,3,4,5-tetrahydro-1H-benzo[b]azepin-3-yl)-1,3,4-oxadiazole-2-carboxamide] | 0.1 to 1000 nM
CN1C(=O)[C@@H](NC(=O)c2ncc(Cc3ccccn3)o2)[C@H]2C[C@H]2c2nccnc21 [Example 226] | 0.1 to 1000 nM
CN1C(=O)[C@@H](NC(=O)c2ncc(C(F)(F)c3ccccc3)o2)[C@H]2C[C@H]2c2nccnc21 [Example 227] | 0.1 to 1000 nM

tested on: not given; experiment: not given; conditions: in vivo

Compound | Rat unbound CL
CN1C(=O)[C@@H](NC(=O)c2nnc(Cc3ccccc3)[nH]2)[C@H]2C[C@H]2c2ccccc21 [Example 46A] | 188 mL/min/kg

same assay, conditions: male, Sprague-Dawley Crl:CD(SD), in vivo

Compound | Rat unbound CL
CN1C(=O)[C@@H](NC(=O)c2cc(C3(c4ccccc4)CC3)on2)COc2ccccc21 [Example 8, (S)-N-(5-methyl-4-oxo-2,3,4,5-tetrahydrobenzo[b][1,4]oxazepin-3-yl)-5-(1-phenylcyclopropyl)isoxazole-3-carboxamide] | 3700 mL/min/kg
C[C@H]1Oc2cccnc2N(C)C(=O)[C@H]1NC(=O)c1nn(Cc2ccccc2)cc1F [Example 92, 1-benzyl-N-((2R,3S)-2,5-dimethyl-4-oxo-2,3,4,5-tetrahydropyrido[3,2-b][1,4]oxazepin-3-yl)-4-fluoro-1H-pyrazole-3-carboxamide] | 420 mL/min/kg
CN1C(=O)[C@@H](NC(=O)c2ncn(Cc3cccc(C#N)c3)n2)COc2cccnc21 [Example 171, (S)-1-(3-cyanobenzyl)-N-(5-methyl-4-oxo-2,3,4,5-tetrahydropyrido[3,2-b][1,4]oxazepin-3-yl)-1H-1,2,4-triazole-3-carboxamide] | 32 mL/min/kg
C[C@H]1Oc2cccnc2N(C)C(=O)[C@H]1NC(=O)c1ncn(Cc2cccc(C#N)c2)n1 [Example 172, 1-(3-cyanobenzyl)-N-((2R,3S)-2,5-dimethyl-4-oxo-2,3,4,5-tetrahydropyrido[3,2-b][1,4]oxazepin-3-yl)-1H-1,2,4-triazole-3-carboxamide] | 65 mL/min/kg

biological target: P-gp (P-glycoprotein, MDR1) (Homo sapiens (Human), UniProt P08183); experiment: MDCKII-MDR1 permeability, efflux ratio; type: in vitro ADME; conditions: dog, MDCK-MDR1, pH 7.4, MDCKII-MDR1 cells, read-out: ER MDR1
Sequence (P08183 whole entry): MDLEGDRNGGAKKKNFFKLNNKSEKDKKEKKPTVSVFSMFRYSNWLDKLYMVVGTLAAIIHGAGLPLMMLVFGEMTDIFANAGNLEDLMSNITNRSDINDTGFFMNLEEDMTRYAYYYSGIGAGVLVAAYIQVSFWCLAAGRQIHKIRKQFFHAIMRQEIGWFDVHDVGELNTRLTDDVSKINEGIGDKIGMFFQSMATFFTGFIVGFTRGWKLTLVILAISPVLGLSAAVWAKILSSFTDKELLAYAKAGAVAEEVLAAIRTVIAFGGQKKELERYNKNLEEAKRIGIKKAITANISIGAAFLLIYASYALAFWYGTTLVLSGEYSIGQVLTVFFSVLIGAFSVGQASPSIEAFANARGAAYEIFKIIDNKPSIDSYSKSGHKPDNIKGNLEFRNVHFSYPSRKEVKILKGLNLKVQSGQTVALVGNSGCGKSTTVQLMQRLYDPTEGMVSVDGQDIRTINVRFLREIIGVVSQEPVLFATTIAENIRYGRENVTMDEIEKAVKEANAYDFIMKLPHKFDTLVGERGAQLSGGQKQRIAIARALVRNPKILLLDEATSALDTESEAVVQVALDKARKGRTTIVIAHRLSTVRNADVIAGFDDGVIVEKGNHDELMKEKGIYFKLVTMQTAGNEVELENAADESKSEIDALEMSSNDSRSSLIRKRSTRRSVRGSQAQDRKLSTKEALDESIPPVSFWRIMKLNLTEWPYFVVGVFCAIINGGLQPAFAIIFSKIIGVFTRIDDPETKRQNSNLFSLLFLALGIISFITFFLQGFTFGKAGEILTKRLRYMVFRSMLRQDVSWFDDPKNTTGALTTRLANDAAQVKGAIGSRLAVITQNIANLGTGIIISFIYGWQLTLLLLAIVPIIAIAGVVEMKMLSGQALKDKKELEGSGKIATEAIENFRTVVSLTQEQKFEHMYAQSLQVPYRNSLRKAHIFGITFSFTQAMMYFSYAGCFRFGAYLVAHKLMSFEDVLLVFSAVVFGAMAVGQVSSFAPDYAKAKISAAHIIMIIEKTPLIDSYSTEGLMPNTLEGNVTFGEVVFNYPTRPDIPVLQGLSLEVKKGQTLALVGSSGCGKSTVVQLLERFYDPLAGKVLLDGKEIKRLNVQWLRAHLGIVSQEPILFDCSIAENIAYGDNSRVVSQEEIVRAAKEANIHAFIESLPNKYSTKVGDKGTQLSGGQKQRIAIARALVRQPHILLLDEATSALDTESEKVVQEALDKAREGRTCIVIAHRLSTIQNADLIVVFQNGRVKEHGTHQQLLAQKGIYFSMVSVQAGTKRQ
Protocol: The blood brain barrier (BBB) separates circulating blood from the extracellular fluid of the central nervous system (CNS). The passive membrane permeability (Papp) and the P-gp (P-glycoprotein) substrate efflux potential were determined using the MDCKII-MDR1 cell line as an in vitro model of the effective permeability of a compound through the BBB. A bidirectional assay (Apical to Basolateral (A→B) and Basolateral to Apical (B→A)), in the absence and in the presence of GF120918 (a P-gp inhibitor) was conducted using pre-plated MDCKII-MDR1 cells (Corning HTS Transwell-96) obtained from SOLVO Biotechnology. The assay was run at 3 μM for 90 min (minutes) in triplicate using a HBSS+12.5 mM HEPES pH 7.4 transport buffer. Following incubation of samples from donor and receiver, wells were removed and measured by LC-MS/MS. Samples were extracted by protein precipitation with acetonitrile containing an appropriate internal standard (IS) having a known mass and molecular weight. The precipitate was centrifuged for 10 min at 3000 rpm (revolutions per minute). The supernatants were then collected, diluted if necessary, and injected on to the LC-MS/MS system. […] Papp (apparent permeability expressed in nm/sec [nanometer/second]) values were calculated according to the following equation: […]
Where dQ/dt is the permeability rate, C0 is the initial concentration in the donor solution (expressed as IS ratio), A and B are the surface areas of the filter (the surface area of the cell monolayer).
Monolayer efflux ratios (ER) were derived using the following equation: […]

Compound | efflux ratio at 90 min, 3 μM
CN1C(=O)[C@@H](NC(=O)c2cc(C3(c4ccccc4)CC3)on2)COc2ccccc21 [Example 8, (S)-N-(5-methyl-4-oxo-2,3,4,5-tetrahydrobenzo[b][1,4]oxazepin-3-yl)-5-(1-phenylcyclopropyl)isoxazole-3-carboxamide] | 0.8
C[C@H]1Oc2cccnc2N(C)C(=O)[C@H]1NC(=O)c1nn(Cc2ccccc2)cc1F [Example 92, 1-benzyl-N-((2R,3S)-2,5-dimethyl-4-oxo-2,3,4,5-tetrahydropyrido[3,2-b][1,4]oxazepin-3-yl)-4-fluoro-1H-pyrazole-3-carboxamide] | 1.4

tested on: FADD-deficient Jurkat cells; experiment: Cellular necroptosis assay (human TNFα-induced); type: cell-based; conditions: Homo sapiens, 48 h, human TNFα 10 ng/mL, viability after 48 h, read-out: Cell IC50
Protocol: Ten concentrations of the test compounds were assessed in duplicate in two different test occasions. […] The day of the experiment cells were diluted to a density of […] (5,000 cells/well) with culture medium and added (40 μL) into the 384-well plate containing 0.2 μL/well of test compounds and reference compounds (CRCs) (200×). Cell plates were then incubated at 37° C.-5% CO2. After 30 min, necroptotic cell death was induced with human TNFα (10 ng/mL) and cell viability was evaluated 48 h later by measuring cellular ATP levels using CellTiter-Glo® kit (Promega). Luminescence was read by using Victor V (Perkin Elmer) multilabel plate reader.

Compound | IC50
C[C@H]1Oc2cccnc2N(C)C(=O)[C@H]1NC(=O)c1nn(Cc2ccccc2)cc1F [Example 92, 1-benzyl-N-((2R,3S)-2,5-dimethyl-4-oxo-2,3,4,5-tetrahydropyrido[3,2-b][1,4]oxazepin-3-yl)-4-fluoro-1H-pyrazole-3-carboxamide] | 0.7 nM
CN1C(=O)[C@@H](NC(=O)c2cc(Cc3ccccc3)on2)COc2cccnc21 [Example 142, (S)-5-Benzyl-N-(5-methyl-4-oxo-2,3,4,5-tetrahydropyrido[3,2-b][1,4]oxazepin-3-yl)isoxazole-3-carboxamide] | 0.7 nM
CN1C(=O)[C@@H](NC(=O)c2nnc(Cc3cccc(C#N)c3)[nH]2)COc2cccnc21 [Example 161, (S)-5-(3-cyanobenzyl)-N-(5-methyl-4-oxo-2,3,4,5-tetrahydropyrido[3,2-b][1,4]oxazepin-3-yl)-4H-1,2,4-triazole-3-carboxamide] | 2 nM
CN1C(=O)[C@@H](NC(=O)c2nnc(Cc3cccc(C#N)c3)[nH]2)COc2ccccc21 [Example 163, (S)-5-(3-cyanobenzyl)-N-(5-methyl-4-oxo-2,3,4,5-tetrahydrobenzo[b][1,4]oxazepin-3-yl)-4H-1,2,4-triazole-3-carboxamide] | 1 nM
C[C@H]1Oc2cccnc2N(C)C(=O)[C@H]1NC(=O)c1ncn(Cc2cccc(C#N)c2)n1 [Example 172, 1-(3-cyanobenzyl)-N-((2R,3S)-2,5-dimethyl-4-oxo-2,3,4,5-tetrahydropyrido[3,2-b][1,4]oxazepin-3-yl)-1H-1,2,4-triazole-3-carboxamide] | 1 nM
C[C@H]1Oc2ncccc2N(C)C(=O)[C@H]1NC(=O)c1nnc(Cc2ccccc2)o1 [Example 193, 5-benzyl-N-((3S,4R)-1,4-dimethyl-2-oxo-1,2,3,4-tetrahydropyrido[2,3-b][1,4]oxazepin-3-yl)-1,3,4-oxadiazole-2-carboxamide] | 210 nM
CN1C(=O)[C@@H](NC(=O)c2cn(Cc3ccccc3)nn2)[C@H]2C[C@H]2c2nccnc21 [Example 195, 1-benzyl-N-((7S,7aS,8aR)-5-methyl-6-oxo-5,6,7,7a,8,8a-hexahydrocyclopropa[d]pyrazino[2,3-b]azepin-7-yl)-1H-1,2,3-triazole-4-carboxamide] | 16 nM
CN1C(=O)[C@@H](NC(=O)c2cc(Cc3ccccc3)on2)[C@H]2C[C@H]2c2nccnc21 [Example 197, 5-benzyl-N-((7S,7aS,8aR)-5-methyl-6-oxo-5,6,7,7a,8,8a-hexahydrocyclopropa[d]pyrazino[2,3-b]azepin-7-yl)isoxazole-3-carboxamide] | 3 nM
[2H]C([2H])([2H])N1C(=O)[C@@H](NC(=O)c2nn(Cc3ccccc3)cc2F)[C@@H](C)Oc2ncccc21 [Example 205, 1-benzyl-N-((3S,4R)-1-trideuteriomethyl-4-methyl-2-oxo-1,2,3,4-tetrahydropyrido[2,3-b][1,4]oxazepin-3-yl)-4-fluoro-1H-pyrazole-3-carboxamide] | 21 nM

same assay, conditions: Homo sapiens, 48 h, read-out: Cell IC50

Compound | IC50
CN1C(=O)[C@@H](NC(=O)c2nc(Cc3ccccc3)n[nH]2)COc2cccnc21 [Example 42, (S)-5-benzyl-N-(5-methyl-4-oxo-2,3,4,5-tetrahydropyrido[3,2-b][1,4]oxazepin-3-yl)-4H-1,2,4-triazole-3-carboxamide] | 0.6 nM

same assay, conditions: human TNFα 10 ng/mL, viability after 48 h, read-out: Cell IC50

Compound | IC50
CN1C(=O)[C@@H](NC(=O)c2cc(C3(c4ccccc4)CC3)on2)COc2ccccc21 [Example 8, (S)-N-(5-methyl-4-oxo-2,3,4,5-tetrahydrobenzo[b][1,4]oxazepin-3-yl)-5-(1-phenylcyclopropyl)isoxazole-3-carboxamide] | 4 nM
CN1C(=O)[C@@H](NC(=O)c2cc(Cc3ccccc3)on2)CC2(CC2)c2ccccc21 [Example 9, (S)-5-benzyl-N-(1-methyl-2-oxo-1,2,3,4-tetrahydrospiro[benzo[b]azepine-5,1′-cyclopropan]-3-yl)isoxazole-3-carboxamide] | 8 nM
